Test results taken from PubChem BioAssay (NCI).
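Cultured in 96-well plates, cells were exposed to test compound for 48 hours across five concentrations. The concentration for full growth arrest is given as TGI.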

Key:
Test in all cases: NCI-60 cell line screen, 48 h
HCT-116 colon = tested on: HCT-116 colon
MDA-MB-231 breast = tested on: MDA-MB-231 breast
BT-549 breast = tested on: BT-549 breast
SR leukemia = tested on: SR leukemia
MDA-MB-435 = tested on: MDA-MB-435
CAKI-1 renal = tested on: CAKI-1 renal
SNB-75 CNS = tested on: SNB-75 CNS
OVCAR-5 ovarian = tested on: OVCAR-5 ovarian
UACC-257 melanoma = tested on: UACC-257 melanoma
OVCAR-3 ovarian = tested on: OVCAR-3 ovarian
EKVX NSCLC = tested on: EKVX NSCLC
MALME-3M melanoma = tested on: MALME-3M melanoma
PC-3 prostate = tested on: PC-3 prostate
KM12 colon = tested on: KM12 colon
TK-10 renal = tested on: TK-10 renal
HOP-92 NSCLC = tested on: HOP-92 NSCLC
SF-539 CNS = tested on: SF-539 CNS
UACC-62 melanoma = tested on: UACC-62 melanoma
MDA-N = tested on: MDA-N
SK-MEL-5 melanoma = tested on: SK-MEL-5 melanoma
SK-MEL-28 melanoma = tested on: SK-MEL-28 melanoma
K-562 leukemia = tested on: K-562 leukemia
SNB-19 CNS = tested on: SNB-19 CNS
SN12C renal = tested on: SN12C renal
T-47D breast = tested on: T-47D breast
NCI-H23 lung = tested on: NCI-H23 lung
SK-MEL-2 melanoma = tested on: SK-MEL-2 melanoma
SF-268 CNS = tested on: SF-268 CNS
OVCAR-8 ovarian = tested on: OVCAR-8 ovarian
SK-OV-3 ovarian = tested on: SK-OV-3 ovarian
MCF7 breast = tested on: MCF7 breast
ACHN renal = tested on: ACHN renal
NCI-H460 lung = tested on: NCI-H460 lung
RPMI-8226 leukemia = tested on: RPMI-8226 leukemia
COLO 205 colon = tested on: COLO 205 colon
NCI-H522 lung = tested on: NCI-H522 lung
HOP-62 NSCLC = tested on: HOP-62 NSCLC
HCT-15 colon = tested on: HCT-15 colon
IGROV1 ovarian = tested on: IGROV1 ovarian
DU-145 prostate = tested on: DU-145 prostate
HL-60(TB) leukemia = tested on: HL-60(TB) leukemia
NCI-H226 lung = tested on: NCI-H226 lung
A498 renal = tested on: A498 renal
RXF 393 renal = tested on: RXF 393 renal
SW-620 colon = tested on: SW-620 colon
LOX IMVI melanoma = tested on: LOX IMVI melanoma
A549 NSCLC = tested on: A549 NSCLC
NCI/ADR-RES ovarian = tested on: NCI/ADR-RES ovarian
786-0 renal = tested on: 786-0 renal
UO-31 renal = tested on: UO-31 renal
U251 CNS = tested on: U251 CNS
MOLT-4 leukemia = tested on: MOLT-4 leukemia
OVCAR-4 ovarian = tested on: OVCAR-4 ovarian
HS 578T breast = tested on: HS 578T breast
HT29 colon = tested on: HT29 colon
M14 melanoma = tested on: M14 melanoma
SF-295 CNS = tested on: SF-295 CNS

Measured: TGI

C=CCSc1nc2c(N)ncnc2n1C1OC(CO)C(O)C1O (configuration not stated)
> 100 µM: all assays above
